The structures appear in SMILES notation.

The record followed here is patent US8435756B2, “Anionic acid-labile surfactants and methods of use” (Protea Biosciences, Inc., priority 2008, dated 2013).

The target of one series is BSA (Bos taurus, UniProt P02769). In words: Protein score from in-solution tryptic digestion of BSA (MALDI-TOF, peptide mass fingerprinting). The conditions noted are these: tryptic digestion of 250 pmol BSA, 0.05% AALS-6 in digestion buffer; FIG. 2. The procedure:
Protein scores from in-solution digestion of BSA in buffers containing an embodiment of an anionic acid-labile surfactant (“AALS-6”) and three commercially available acid labile surfactants are illustrated in FIG. 2. A tryptic digestion of 250 pmol BSA is performed using 0.05% AALS-6 in digestion buffer. For the other surfactants, digestion is performed according to the manufacturer's protocols. Sample clean-up and MALDI spotting is performed using C18 reversed phase tips. MALDI-TOF spectra are acquired using an ABI 4800 mass spectrometer in the reflector mode. Protein identification is accomplished through peptide mass fingerprinting (PMF) of the acquired MS spectra.
Algorithms that compare mass spectrometric data to database for protein identification compare the experimental tandem mass spectra against theoretical mass spectra from all peptides and proteins present in the databases. As an output for the database correlation analysis, a protein identification score is generated for each potential protein match. Protein matches are required to have a minimum protein score to be considered a potential positive and significant protein identification. The higher the score, the more likely that the protein identification is real and not a result of random events that match the database. […]

A further series addresses T1, ovalbumin (Gallus gallus, UniProt P01012).
T1 sequence (P01012 1-386): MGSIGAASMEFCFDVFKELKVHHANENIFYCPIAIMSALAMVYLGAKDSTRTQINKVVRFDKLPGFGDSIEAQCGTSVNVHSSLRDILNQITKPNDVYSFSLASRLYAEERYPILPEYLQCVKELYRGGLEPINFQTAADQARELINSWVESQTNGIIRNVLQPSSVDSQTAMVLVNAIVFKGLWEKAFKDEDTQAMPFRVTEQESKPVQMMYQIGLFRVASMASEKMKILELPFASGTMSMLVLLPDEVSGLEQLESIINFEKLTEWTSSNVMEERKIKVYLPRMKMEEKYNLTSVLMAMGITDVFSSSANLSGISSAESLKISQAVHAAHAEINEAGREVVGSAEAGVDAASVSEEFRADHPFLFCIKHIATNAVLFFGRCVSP
In words: Protein score from in-solution tryptic digestion of ovalbumin (MALDI-TOF MS/MS, Mascot). The following applies: tryptic digestion of 250 μmol ovalbumin; 0.05% AALS-6, other surfactants per manufacturer's protocols; FIG. 3. The procedure: The protein scores from in-solution digestion of ovalbumin in buffers containing an embodiment of an anionic acid-labile surfactant (“AALS-6”) and three commercially available acid labile surfactants are illustrated in FIG. 3. A tryptic digestion of […] ovalbumin was performed using 0.05% AALS-6 in digestion buffer. For the other surfactants, digestion was performed according to the manufacturer's protocols. Sample clean-up and MALDI spotting was performed using C18 reversed phase tips. MALDI-TOF MS and MS/MS spectra were acquired using an ABI 4800 mass spectrometer in the reflector mode. Protein identification was accomplished through database searching MS/MS spectra using Mascot search engine.
The ovalbumin control digestion score is 347. In general, the higher protein score indicates an increase in the quality and/or completeness of the digestion because more peptides are available for analysis by the mass spectrometer, and/or the quality of the digested sample delivered to the mass spectrometer is increased. […] The higher protein score of AALS-6 may also be due to its degradation kinetics. For example, once the digestion experiment is complete, the degradation of the surfactant reduces contamination of the signal by detergent molecules and by-products as well as reduces the ion suppression effects commonly seen in mass spectrometry analysis of peptides and proteins.

Series [1] is described as follows: Critical micellular concentration. Type of series: physicochemical.

BSA, sequence (P02769 25-607): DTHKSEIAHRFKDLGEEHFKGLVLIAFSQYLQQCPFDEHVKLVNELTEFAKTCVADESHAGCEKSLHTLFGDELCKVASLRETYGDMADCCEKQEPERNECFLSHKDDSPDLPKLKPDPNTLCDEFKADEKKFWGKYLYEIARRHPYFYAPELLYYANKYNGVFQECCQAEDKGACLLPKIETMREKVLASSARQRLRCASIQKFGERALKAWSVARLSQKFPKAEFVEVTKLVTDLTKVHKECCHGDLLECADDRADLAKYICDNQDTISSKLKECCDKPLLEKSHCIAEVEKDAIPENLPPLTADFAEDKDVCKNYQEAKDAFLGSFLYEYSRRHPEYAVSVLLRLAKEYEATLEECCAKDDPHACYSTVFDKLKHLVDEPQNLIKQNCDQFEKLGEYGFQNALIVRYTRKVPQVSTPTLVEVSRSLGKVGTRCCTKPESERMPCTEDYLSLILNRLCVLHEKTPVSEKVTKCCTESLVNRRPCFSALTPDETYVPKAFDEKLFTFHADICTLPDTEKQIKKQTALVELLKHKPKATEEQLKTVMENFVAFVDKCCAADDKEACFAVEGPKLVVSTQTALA

Consider `CCCCCCOC(C)(COS(=O)(=O)[O-])OCCCCCC.[Na+]` [AALS-6, sodium 2,2-bis(hexyloxy)propyl sulfate], for which the average protein score on BSA is 93; on ovalbumin, 487. Besides, the critical micellular concentration in series [1] is 7.7 mM.
As to `CCCCCCCCCCC(OC(=O)NCCCS(=O)(=O)[O-])c1ccco1.[Na+]` (centres unmarked) [Proteamax], the average protein score on ovalbumin is given as 329.
In turn, `CCCCCCCCCCCC1(C)OCC(COCCCS(=O)(=O)[O-])O1.[Na+]` (centres unmarked) [Rapigest] came in with an average protein score on ovalbumin of 341.
